{"source": "patent US20100216854A1", "about": "“1,3 AND 1,3,5 SUBSTITUTED IMIDAZOLES AS […]” (Eldrug S.A., priority 2007, published 2010)", "key": {"[1]": {"molecular_target": "T1, Angiotensin II (AII) receptor (Oryctolagus cuniculus, UniProt P34976)", "T1 construct": "evaluated in the anesthetized rabbit preparation made hypertensive by intravenous infusion of AII; from tissue; host or cells: whole living New Zealand White rabbit (in vivo blood pressure)", "T1 sequence (P34976 1-359)": "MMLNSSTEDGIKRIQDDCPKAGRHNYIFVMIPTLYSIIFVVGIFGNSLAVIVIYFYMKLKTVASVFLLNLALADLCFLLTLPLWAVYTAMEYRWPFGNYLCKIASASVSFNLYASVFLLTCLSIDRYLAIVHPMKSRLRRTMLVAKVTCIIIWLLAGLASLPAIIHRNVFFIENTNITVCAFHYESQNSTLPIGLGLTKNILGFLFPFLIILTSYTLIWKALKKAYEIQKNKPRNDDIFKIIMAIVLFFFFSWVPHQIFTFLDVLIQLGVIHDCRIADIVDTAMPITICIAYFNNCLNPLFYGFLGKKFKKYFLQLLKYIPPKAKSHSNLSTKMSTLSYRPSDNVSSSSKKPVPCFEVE", "assay": "Hypotensive effect as ARBs in anesthetized rabbits made hypertensive by AII infusion", "type": "in vivo, New Zealand White rabbits", "details": "AII infusion 1 μg/min; for Mean BP after 1st bolus (150 ng/kg) / Mean BP after 1st bolus (300 ng/kg): IV bolus; for Mean BP after 1st bolus (150 ng/kg) / Mean BP after 2nd bolus (300 ng/kg) / Mean BP after 1st bolus (300 ng/kg) / Mean BP after 2nd bolus (600 ng/kg): mean ± S.D.; for Mean BP after 2nd bolus (300 ng/kg): second IV bolus 15 min after 150 ng/kg; for Mean BP after 2nd bolus (600 ng/kg): second IV bolus 15 min after 300 ng/kg", "experimental": "The hypotensive effect of these compounds as ARBs was evaluated in the anesthetized rabbit preparation made hypertensive by intravenous infusion of AII. In brief, adult normotensive male New Zealand White rabbits weighing between 2.5 and 3.5 kg were anesthetized by pentobarbitone (30 mg/kg), intubated and mechanically ventilated with 100% oxygen using a respirator for small animals (MD Industries, Mobile, Ala., USA). The tidal volume was 15 ml and the rate was adjusted to keep blood gases within normal range. Two polyethylene catheters were inserted, one in the carotid artery for continuous blood pressure monitoring via a transducer attached to a multichannel recorder (Nihon-Kohden, Model 6000, Japan) and the other one in the jugular vein for the administrations of solution made by diluting angiotensin II (ANGII) (Hypertension, CIBA) in 5% dextrose at final concentration of 5 μg/ml. Based on previous testing with this rabbit preparation submaximal angiotensin II-dependent hypertension was induced by infusing angiotensin via a syringe pump (Harvard Apparatus Pump 22, Harvard Apparatus, Natick, Mass., USA) at a constant rate of 0.2 ml/min (1 μg/min). Five minutes after the establishment of hypertension, two cumulative IV boluses of each compound were given via an ear vein 15 minutes apart. After the second bolus mean blood pressure was recorded for 30 minutes and the experiment was terminated. […]\nCompounds E-P, H—P, H-Px, were also tested for the AngII receptor blocker properties, by testing their ability to block the hypertensive effect of AngII, using adult normotensive male New Zealand white rabbits. […] Values represent the mean blood pressure and are given as mean±S.D."}, "[2]": {"assay": "Effect on mean BP in anesthetized normotensive rabbits (agonistic effect)", "type": "in vivo", "details": "cumulative IV injections of 300-900 ng/kg"}, "α2-AR": {"tested_on": "α2-AR", "assay": "Testing α2-agonist properties: BP response to norepinephrine bolus before and after compound in mice", "type": "in vivo, Swiss Webster mice", "details": "for suppression of the hypertensive effect of NE: NE bolus 30 minutes after injection of compound, higher dose (300) for E-P, 100 for H-P, H-Px and UK 14304; for BP after compound (100 μg/kg): iv 100 μg/kg; for BP after compound (300 μg/kg): iv 300 μg/kg", "experimental": "Swiss Webster mice were anesthetized with 50 mg/kg pentobarbital and two lines were inserted, one in right iliac artery and the other in right iliac vein. Next morning the arterial line was connected to a blood pressure transducer and the mean BP was recorded with a Power lab/800 data acquisition system. The venous line was used for drug infusion."}, "[3]": {"details": "anesthetized rabbits; cited from earlier work"}, "rat uterus": {"tested_on": "rat uterus", "details": "rat uterus assay; cited from earlier work"}, "[4]": {"details": "group mean, after 100 μg/kg compound, second NE bolus 30 min after compound"}, "[5]": {"details": "group mean, BP recorded after injection"}, "[6]": {"details": "individual mice, 100 μg/kg compound"}, "[7]": {"details": "individual mice, after 100 μg/kg compound"}}, "note": "Values joined by “and” are separate entries in the source; they are usually repeats but may differ in a detail not shown here. Identical values can stand only once. Marks after values point to notes of the source that are not given here.", "data": [{"molecule": "CCCCC1=NC2(CCCC2)C(=O)N1Cc1ccc(-c2ccccc2-c2nnn[nH]2)cc1", "note": "[Irbesartan]", "values": [{"measurement": "Mean BP after 1st bolus (150 ng/kg)", "setting": "[1]", "result": "141 ± 10", "unit": "mmHg"}, {"measurement": "Mean BP after 2nd bolus (300 ng/kg)", "setting": "[1]", "result": "133 ± 11", "unit": "mmHg"}, {"measurement": "Cumulative % drop in mean BP after the 2nd bolus", "setting": "[1]; boluses 150 then 300 ng/kg", "result": "−24 ± 7", "unit": "%"}]}, {"molecule": "N=C(N)NCCc1cncn1Cc1ccccc1-c1nnn[nH]1", "note": "[E-P]", "values": [{"measurement": "Mean BP after 1st bolus (300 ng/kg)", "setting": "[1]", "result": "149 ± 7", "unit": "mmHg"}, {"measurement": "Mean BP after 2nd bolus (600 ng/kg)", "setting": "[1]", "result": "140 ± 3", "unit": "mmHg"}, {"measurement": "Cumulative % drop in mean BP after the 2nd bolus", "setting": "[1]; boluses 300 then 600 ng/kg", "result": "−15 ± 4", "unit": "%"}, {"measurement": "effect on mean BP", "setting": "[2]", "result": "did not significantly affect mean BP"}, {"measurement": "suppression of the hypertensive effect of NE", "setting": "α2-AR", "result": 45, "unit": "%"}, {"measurement": "Δ2 = BP changes between second bolus of Norepinephrine and the new baseline BP after injection of compound", "setting": "α2-AR; group mean, 100 μg/kg compound", "result": 23.0, "unit": "mmHg"}, {"measurement": "Δ2 = BP changes between second bolus of Norepinephrine and the new baseline BP after injection of compound", "setting": "α2-AR; group mean, 300 μg/kg compound", "result": 12.3, "unit": "mmHg"}, {"measurement": "BP after second bolus NE (0.12 μg/kg)", "setting": "α2-AR; [4]", "result": 153.5, "unit": "mmHg"}, {"measurement": "BP after second bolus NE (0.12 μg/kg)", "setting": "α2-AR; group mean, after 300 μg/kg compound", "result": 124.0, "unit": "mmHg"}, {"measurement": "BP after compound (100 μg/kg)", "setting": "α2-AR; [5]", "result": 130.5, "unit": "mmHg"}, {"measurement": "BP after compound (300 μg/kg)", "setting": "α2-AR; group mean", "result": 111.7, "unit": "mmHg"}, {"measurement": "Δ2 = BP changes between second bolus of Norepinephrine and the new baseline BP after injection of compound", "setting": "α2-AR; [6]", "result": "32.0 mmHg and 14.0 mmHg"}, {"measurement": "Δ2 = BP changes between second bolus of Norepinephrine and the new baseline BP after injection of compound", "setting": "α2-AR; individual mice, 300 μg/kg compound", "result": "8.0 mmHg and 13.0 mmHg and 16.0 mmHg"}, {"measurement": "BP after second bolus NE (0.12 μg/kg)", "setting": "α2-AR; [7]", "result": "158.0 mmHg and 149.0 mmHg"}, {"measurement": "BP after second bolus NE (0.12 μg/kg)", "setting": "α2-AR; individual mice, after 300 μg/kg compound", "result": "128.0 mmHg and 120.0 mmHg and 124.0 mmHg"}, {"measurement": "BP after compound (100 μg/kg)", "setting": "α2-AR; individual mice", "result": "126.0 mmHg and 135.0 mmHg"}, {"measurement": "BP after compound (300 μg/kg)", "setting": "α2-AR; individual mice", "result": "120.0 mmHg and 107.0 mmHg and 108.0 mmHg"}, {"measurement": "dose required to suppress NE effect", "setting": "α2-AR; mice", "result": 0.3, "unit": "mg/kg"}]}, {"molecule": "[Sar^1, Lys^3, Glu^5]ANG II", "values": [{"measurement": "agonist activity", "setting": "[3]", "result": "possesses agonist activity"}, {"measurement": "agonist activity", "setting": "rat uterus", "result": "possesses agonist activity"}]}, {"molecule": "CCCCc1nc(Cl)c(CO)n1Cc1ccc(-c2ccccc2-c2nn[nH]n2)cc1", "note": "[Losartan]", "values": [{"measurement": "Mean BP after 1st bolus (150 ng/kg)", "setting": "[1]", "result": "148 ± 6", "unit": "mmHg"}, {"measurement": "Mean BP after 2nd bolus (300 ng/kg)", "setting": "[1]", "result": "136 ± 3", "unit": "mmHg"}, {"measurement": "Cumulative % drop in mean BP after the 2nd bolus", "setting": "[1]; boluses 150 then 300 ng/kg", "result": "−22 ± 5", "unit": "%"}]}, {"molecule": "CCOc1nc2cccc(C(=O)O)c2n1Cc1ccc(-c2ccccc2-c2nnn[nH]2)cc1", "note": "[Candesartan]", "values": [{"measurement": "Cumulative % drop in mean BP after the 2nd bolus", "setting": "[1]; boluses 150 then 300 ng/kg", "result": "−41 ± 3", "unit": "%"}]}, {"molecule": "NCCc1cncn1Cc1ccccc1-c1nnn[nH]1", "note": "[H-Px]", "values": [{"measurement": "Mean BP after 1st bolus (300 ng/kg)", "setting": "[1]", "result": "148 ± 23", "unit": "mmHg"}, {"measurement": "Mean BP after 2nd bolus (600 ng/kg)", "setting": "[1]", "result": "131 ± 15", "unit": "mmHg"}, {"measurement": "Cumulative % drop in mean BP after the 2nd bolus", "setting": "[1]; boluses 300 then 600 ng/kg", "result": "−24 ± 4", "unit": "%"}, {"measurement": "effect on mean BP", "setting": "[2]", "result": "did not significantly affect mean BP"}, {"measurement": "suppression of the hypertensive effect of NE", "setting": "α2-AR", "result": 42, "unit": "%"}, {"measurement": "Δ2 = BP changes between second bolus of Norepinephrine and the new baseline BP after injection of compound", "setting": "α2-AR; group mean, 100 μg/kg compound", "result": 12.0, "unit": "mmHg"}, {"measurement": "BP after second bolus NE (0.12 μg/kg)", "setting": "α2-AR; [4]", "result": 128.3, "unit": "mmHg"}, {"measurement": "BP after compound (100 μg/kg)", "setting": "α2-AR; [5]", "result": 125.3, "unit": "mmHg"}, {"measurement": "Δ2 = BP changes between second bolus of Norepinephrine and the new baseline BP after injection of compound", "setting": "α2-AR; [6]", "result": "15* mmHg and 11.0 mmHg and 13.0 mmHg"}, {"measurement": "BP after second bolus NE (0.12 μg/kg)", "setting": "α2-AR; [7]", "result": "114.0 mmHg and 136.0 mmHg and 135.0 mmHg"}, {"measurement": "BP after compound (100 μg/kg)", "setting": "α2-AR; individual mice", "result": "129.0 mmHg and 125.0 mmHg and 122.0 mmHg"}, {"measurement": "dose required to suppress NE effect", "setting": "α2-AR; mice", "result": 0.1, "unit": "mg/kg"}]}, {"molecule": "Brc1c(NC2=NCCN2)ccc2nccnc12", "note": "[UK 14304, reference compound]", "values": [{"measurement": "suppression of the hypertensive effect of NE", "setting": "α2-AR", "result": 48, "unit": "%"}, {"measurement": "Δ2 = BP changes between second bolus of Norepinephrine and the new baseline BP after injection of compound", "setting": "α2-AR; group mean, 100 μg/kg compound", "result": 15.8, "unit": "mmHg"}, {"measurement": "BP after second bolus NE (0.12 μg/kg)", "setting": "α2-AR; [4]", "result": 125.5, "unit": "mmHg"}, {"measurement": "BP after compound (100 μg/kg)", "setting": "α2-AR; [5]", "result": 109.8, "unit": "mmHg"}, {"measurement": "Δ2 = BP changes between second bolus of Norepinephrine and the new baseline BP after injection of compound", "setting": "α2-AR; individual mice, 100 μg/kg compound, listed as UK", "result": "20.0 mmHg and 12.0 mmHg and 7.0 mmHg and 24.0 mmHg"}, {"measurement": "BP after second bolus NE (0.12 μg/kg)", "setting": "α2-AR; individual mice, after 100 μg/kg compound, listed as UK", "result": "125.0 mmHg and 123.0 mmHg and 115.0 mmHg and 139.0 mmHg"}, {"measurement": "BP after compound (100 μg/kg)", "setting": "α2-AR; individual mice, listed as UK", "result": "105.0 mmHg and 111.0 mmHg and 108.0 mmHg and 115.0 mmHg"}, {"measurement": "decrease in BP", "setting": "α2-AR; mice, 100 Ilg/kg, control α2-agonist", "result": 15, "unit": "mmHg"}]}]}
